Laboratory results as given in patent US9694045B2, “Pharmaceutical composition for preventing or treating inflammatory diseases comprising trachelospermi caulis extract and paeonia suffruticosa andrews extract, and method for preparing the same” (SINIL PHARMACEUTICAL CO., LTD., priority 2010, dated 2017).

Legend:
Format in all cases: in vivo
IL-2 = IL-2 production of splenocytes of arthritis-induced mice (ELISA); settings: positive control group (bucillamine 300 mg/kg oral)
Experimental: (§1) Bovine type II collagen and adjuvant were separately emulsified, and each emulsion was subcutanesously injected at a dose of 100 μg to the tail. Three weeks later, a booster was achieved by the intraperitoneal injection of 100 μg of bovine type II collagen to induce arthritis. Immediately after the induction, drugs were administered for 21 days and their inhibitory activity against arthritis was measured. The mice were orally administered with suspensions of indomethacin (1 mg/kg), meloxicam (4 mg/kg), bucillamine (300 mg/kg), and the mixture of extracts from Trachelospermi Caulis and Paeonia Suffruticosa Andrews (SI-000902), every day. For comparison, a normal group (arthritis not induced) and a control (administered with vehicle) were employed. The extract mixture (solid extract, soft extract) was dispersed at a concentration of 20, 50, 100, 200 and 400 mg/kg in a 1% carboxymethyl-cellulose sodium solution before the oral administration. Severity of edema was measured in the four feet of each mouse by blind test with the naked eye every three days and evaluated as grades 0 to 4. The spleen was aseptically excised from arthritis-induced mice and used to give a cell suspension. […] The level of the cytokines IFN-γ and IL-2 in the medium was measured using an ELISA kit (R&D systems) to examine the inhibitory effect of the extract mixture on the cytokines.

IFN-γ = IFN-γ production of splenocytes of arthritis-induced mice (ELISA); settings: positive control group (bucillamine 300 mg/kg oral)
Experimental: as §1

[1] = system: splenocytes of arthritis-induced mice; assay: Splenocyte proliferation in arthritis-induced mice (BrdU ELISA); settings: Mus musculus, positive control group (bucillamine 300 mg/kg oral)
Experimental: Bovine type II collagen and adjuvant were separately emulsified, and each emulsion was subcutanesously injected at a dose of 100 μg to the tail. Three weeks later, a booster was achieved by the intraperitoneal injection of 100 μg of bovine type II collagen to induce arthritis. Immediately after the induction, drugs were administered for 21 days and their inhibitory activity against arthritis was measured. The mice were orally administered with suspensions of indomethacin (1 mg/kg), meloxicam (4 mg/kg), bucillamine (300 mg/kg), and the mixture of extracts from Trachelospermi Caulis and Paeonia Suffruticosa Andrews (SI-000902), every day. For comparison, a normal group (arthritis not induced) and a control (administered with vehicle) were employed. The extract mixture (solid extract, soft extract) was dispersed at a concentration of 20, 50, 100, 200 and 400 mg/kg in a 1% carboxymethyl-cellulose sodium solution before the oral administration. Severity of edema was measured in the four feet of each mouse by blind test with the naked eye every three days and evaluated as grades 0 to 4. The spleen was aseptically excised from arthritis-induced mice, minced and filtered through a filter to separate and collect only the cells. […] After incubation, the cells were fixed, and suppressive activity against splenocyte proliferation was determined using a BrdU ELISA cell proliferation assay kit (Roche).

CC(C)(S)C(=O)N[C@@H](CS)C(=O)O [bucillamine]
suppression of IL-2 (IL-2): 39.1% | suppression of IFN-γ (IFN-γ): 88.5% | inhibition at 300 mg/kg [1]: 51.1%
